Assay in all cases: kinase profiling panel
Holding throughout (format): biochemical

One assay has as its target ROCK 2 (Homo sapiens, UniProt O75116). The note with it: read-out: % Activity Remaining. From the text:
(§1) Protein kinase profiling against a Dundee panel of 140 protein kinases was undertaken at the International Centre for Protein Kinase Profiling. The result for each kinase was presented as a mean kinase activity of the reaction taken in triplicate relative to a control sample treated with DMSO. Assay conditions and abbreviations are available at http://www.kinase-screen.mrc.ac.uk.

The target of another assay is GSK3 beta (Homo sapiens, UniProt P49841). The note with it: read-out: % Activity Remaining.
Excerpt: as §1

In another assay the target is NEK6 (Homo sapiens, UniProt Q9HC98). To be noted: read-out: % Activity Remaining.
Excerpt: as §1

The test system of a further assay is PHK. The note with it: 1 µM.
Excerpt: as §1

In another assay the target is SYK (Homo sapiens, UniProt P43405). The note with it: read-out: % Activity Remaining.
Excerpt: as §1

The next assay deals with JNK2 (Homo sapiens, UniProt P45984). To be noted: read-out: % Activity Remaining.
Excerpt: as §1

A further assay addresses T1, EPH-B1 (Homo sapiens, UniProt P54762).
T1 sequence (P54762 18-984): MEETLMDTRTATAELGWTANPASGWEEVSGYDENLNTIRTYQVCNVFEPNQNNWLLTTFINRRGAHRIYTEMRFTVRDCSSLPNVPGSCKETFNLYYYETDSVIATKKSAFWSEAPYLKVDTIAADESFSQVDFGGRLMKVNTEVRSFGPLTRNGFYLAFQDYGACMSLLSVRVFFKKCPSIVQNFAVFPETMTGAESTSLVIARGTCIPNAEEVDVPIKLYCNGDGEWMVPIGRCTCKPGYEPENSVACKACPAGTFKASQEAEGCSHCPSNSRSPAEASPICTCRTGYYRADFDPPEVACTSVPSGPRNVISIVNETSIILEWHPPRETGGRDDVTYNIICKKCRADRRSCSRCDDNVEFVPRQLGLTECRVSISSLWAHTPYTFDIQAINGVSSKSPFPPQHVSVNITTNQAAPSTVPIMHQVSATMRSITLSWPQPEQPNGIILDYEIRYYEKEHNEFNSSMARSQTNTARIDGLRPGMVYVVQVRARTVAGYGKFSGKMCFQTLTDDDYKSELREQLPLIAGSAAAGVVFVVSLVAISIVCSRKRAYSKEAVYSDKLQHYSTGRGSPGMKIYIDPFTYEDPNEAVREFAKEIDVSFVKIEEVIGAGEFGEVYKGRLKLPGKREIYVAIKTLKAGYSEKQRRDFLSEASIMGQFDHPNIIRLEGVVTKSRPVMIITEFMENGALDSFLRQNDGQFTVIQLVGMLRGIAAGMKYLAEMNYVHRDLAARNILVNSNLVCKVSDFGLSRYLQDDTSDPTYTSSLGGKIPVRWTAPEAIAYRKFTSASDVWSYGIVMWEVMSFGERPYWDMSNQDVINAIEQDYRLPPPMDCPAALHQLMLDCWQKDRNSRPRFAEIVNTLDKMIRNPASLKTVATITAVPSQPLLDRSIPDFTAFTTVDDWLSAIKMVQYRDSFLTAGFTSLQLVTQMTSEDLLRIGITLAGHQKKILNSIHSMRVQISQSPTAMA
To be noted: read-out: % Activity Remaining.
Excerpt: as §1

The target in the next assay is CDK9-Cyclin T1 (Homo sapiens, UniProt P50750). The note with it: read-out: % Activity Remaining.
Excerpt: as §1

For another assay, the target named is T2, DYRK3 (Homo sapiens, UniProt O43781).
T2 sequence (O43781 1-588): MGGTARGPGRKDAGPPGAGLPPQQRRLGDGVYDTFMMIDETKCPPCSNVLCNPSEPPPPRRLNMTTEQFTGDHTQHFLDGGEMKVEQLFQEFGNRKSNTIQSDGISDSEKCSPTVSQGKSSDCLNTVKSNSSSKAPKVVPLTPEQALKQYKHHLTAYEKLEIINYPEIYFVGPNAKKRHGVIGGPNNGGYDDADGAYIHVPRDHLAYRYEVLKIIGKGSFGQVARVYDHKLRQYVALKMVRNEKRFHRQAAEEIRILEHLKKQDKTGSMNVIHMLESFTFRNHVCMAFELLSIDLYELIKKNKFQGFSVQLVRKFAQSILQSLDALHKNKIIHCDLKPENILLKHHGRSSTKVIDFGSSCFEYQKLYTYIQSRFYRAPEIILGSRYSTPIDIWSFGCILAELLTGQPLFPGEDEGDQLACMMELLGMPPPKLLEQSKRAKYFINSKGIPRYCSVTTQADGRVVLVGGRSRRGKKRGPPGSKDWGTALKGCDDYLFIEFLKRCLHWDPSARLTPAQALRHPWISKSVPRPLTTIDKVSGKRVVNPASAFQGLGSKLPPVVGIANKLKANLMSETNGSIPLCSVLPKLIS
The note with it: read-out: % Activity Remaining.
Excerpt: as §1

The target of another assay is PKB beta (Homo sapiens, UniProt P31751). To be noted: read-out: % Activity Remaining.
Excerpt: as §1

A further assay addresses PIM3 (Homo sapiens, UniProt Q86V86). To be noted: read-out: % Activity Remaining.
Excerpt: as §1

For a further assay, the target named is PKC alpha (Homo sapiens, UniProt P17252). The note with it: read-out: % Activity Remaining.
Excerpt: as §1

Another assay deals with T3, p38 delta MAPK (Homo sapiens, UniProt O15264).
T3 sequence (O15264 1-365): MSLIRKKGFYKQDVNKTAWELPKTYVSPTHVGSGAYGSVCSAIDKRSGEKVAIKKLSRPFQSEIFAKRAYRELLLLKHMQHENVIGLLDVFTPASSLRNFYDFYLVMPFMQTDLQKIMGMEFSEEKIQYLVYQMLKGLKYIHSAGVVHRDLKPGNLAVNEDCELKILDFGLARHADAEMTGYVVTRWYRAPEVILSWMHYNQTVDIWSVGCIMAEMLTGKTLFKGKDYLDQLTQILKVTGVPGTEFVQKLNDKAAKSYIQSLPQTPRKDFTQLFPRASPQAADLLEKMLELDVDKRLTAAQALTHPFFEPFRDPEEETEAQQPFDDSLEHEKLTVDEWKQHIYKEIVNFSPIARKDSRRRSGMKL
To be noted: read-out: % Activity Remaining.
Excerpt: as §1

Another assay concerns the target CDK2-Cyclin A (Homo sapiens, UniProt P24941). The note with it: read-out: % Activity Remaining.
Excerpt: as §1

In another assay the target is EPH-A4 (Homo sapiens, UniProt P54764). To be noted: read-out: % Activity Remaining.
Excerpt: as §1

The target of the next assay is IGF-1R (Homo sapiens, UniProt P08069). To be noted: read-out: % Activity Remaining.
Excerpt: as §1

For a further assay, the target named is YES1 (Homo sapiens, UniProt P07947). The note with it: read-out: % Activity Remaining.
Excerpt: as §1

Like-named read-outs stand apart in the source and are kept apart here.

Sequence of GSK3 beta (P49841 whole entry): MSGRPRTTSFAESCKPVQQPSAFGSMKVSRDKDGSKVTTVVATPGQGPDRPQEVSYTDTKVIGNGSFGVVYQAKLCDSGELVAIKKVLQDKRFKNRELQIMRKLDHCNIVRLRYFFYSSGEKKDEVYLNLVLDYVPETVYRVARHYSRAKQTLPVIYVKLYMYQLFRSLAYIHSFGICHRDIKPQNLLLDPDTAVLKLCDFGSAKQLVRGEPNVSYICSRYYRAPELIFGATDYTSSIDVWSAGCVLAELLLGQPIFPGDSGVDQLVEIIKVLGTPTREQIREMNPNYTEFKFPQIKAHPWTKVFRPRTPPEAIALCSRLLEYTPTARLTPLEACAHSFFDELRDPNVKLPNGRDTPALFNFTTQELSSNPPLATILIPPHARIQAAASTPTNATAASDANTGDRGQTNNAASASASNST
Sequence of PKB beta (P31751 whole entry): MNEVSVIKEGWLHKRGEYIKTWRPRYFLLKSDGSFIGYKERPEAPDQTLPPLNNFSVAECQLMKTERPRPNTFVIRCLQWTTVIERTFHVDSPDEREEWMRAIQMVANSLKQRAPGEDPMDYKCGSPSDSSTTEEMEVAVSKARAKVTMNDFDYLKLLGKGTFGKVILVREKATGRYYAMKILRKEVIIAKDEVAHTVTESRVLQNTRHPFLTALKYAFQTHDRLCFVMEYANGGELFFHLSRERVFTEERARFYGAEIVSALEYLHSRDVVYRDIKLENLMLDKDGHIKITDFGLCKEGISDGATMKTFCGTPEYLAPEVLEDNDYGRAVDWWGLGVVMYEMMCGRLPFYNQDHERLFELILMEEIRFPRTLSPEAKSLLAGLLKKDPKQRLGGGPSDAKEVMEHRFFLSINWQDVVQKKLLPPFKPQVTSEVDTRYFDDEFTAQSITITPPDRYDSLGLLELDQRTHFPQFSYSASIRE
Sequence of EPH-A4 (P54764 20-986): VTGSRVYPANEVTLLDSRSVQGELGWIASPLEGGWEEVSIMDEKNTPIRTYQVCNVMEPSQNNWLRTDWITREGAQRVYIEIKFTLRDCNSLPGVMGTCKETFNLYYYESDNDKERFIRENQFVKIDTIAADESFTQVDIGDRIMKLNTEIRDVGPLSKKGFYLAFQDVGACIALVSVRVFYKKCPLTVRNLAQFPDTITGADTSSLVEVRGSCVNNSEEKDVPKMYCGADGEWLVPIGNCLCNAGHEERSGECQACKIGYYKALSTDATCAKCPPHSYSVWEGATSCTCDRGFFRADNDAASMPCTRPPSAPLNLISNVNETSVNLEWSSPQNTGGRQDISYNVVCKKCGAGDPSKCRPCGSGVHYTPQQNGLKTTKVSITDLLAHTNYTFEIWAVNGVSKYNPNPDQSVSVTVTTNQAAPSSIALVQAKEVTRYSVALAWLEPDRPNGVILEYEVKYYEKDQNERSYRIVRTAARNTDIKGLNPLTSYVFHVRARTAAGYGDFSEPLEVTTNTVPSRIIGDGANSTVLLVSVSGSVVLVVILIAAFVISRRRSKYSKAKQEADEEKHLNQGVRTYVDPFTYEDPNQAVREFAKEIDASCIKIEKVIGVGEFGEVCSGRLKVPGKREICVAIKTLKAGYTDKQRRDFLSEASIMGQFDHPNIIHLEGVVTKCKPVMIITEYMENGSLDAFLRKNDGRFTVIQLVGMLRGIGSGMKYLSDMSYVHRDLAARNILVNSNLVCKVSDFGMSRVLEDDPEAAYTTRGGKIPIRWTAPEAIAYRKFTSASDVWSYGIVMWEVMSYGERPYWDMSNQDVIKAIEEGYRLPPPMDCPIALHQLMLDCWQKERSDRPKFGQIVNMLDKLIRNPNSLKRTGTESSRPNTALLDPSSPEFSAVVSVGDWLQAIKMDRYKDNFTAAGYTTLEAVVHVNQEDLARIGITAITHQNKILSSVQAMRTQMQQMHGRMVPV
Sequence of CDK9-Cyclin T1 (P50750 whole entry): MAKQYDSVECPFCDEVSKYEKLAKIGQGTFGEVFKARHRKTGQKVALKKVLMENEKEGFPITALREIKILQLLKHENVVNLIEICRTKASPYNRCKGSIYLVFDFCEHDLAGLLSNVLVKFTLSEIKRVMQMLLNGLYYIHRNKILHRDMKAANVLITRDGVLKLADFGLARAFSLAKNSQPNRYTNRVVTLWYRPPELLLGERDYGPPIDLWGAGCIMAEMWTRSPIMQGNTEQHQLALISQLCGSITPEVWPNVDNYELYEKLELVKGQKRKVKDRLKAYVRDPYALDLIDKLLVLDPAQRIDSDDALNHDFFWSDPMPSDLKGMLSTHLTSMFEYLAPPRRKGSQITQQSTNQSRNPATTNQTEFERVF
Sequence of CDK9-Cyclin T1 (O60563 whole entry partner): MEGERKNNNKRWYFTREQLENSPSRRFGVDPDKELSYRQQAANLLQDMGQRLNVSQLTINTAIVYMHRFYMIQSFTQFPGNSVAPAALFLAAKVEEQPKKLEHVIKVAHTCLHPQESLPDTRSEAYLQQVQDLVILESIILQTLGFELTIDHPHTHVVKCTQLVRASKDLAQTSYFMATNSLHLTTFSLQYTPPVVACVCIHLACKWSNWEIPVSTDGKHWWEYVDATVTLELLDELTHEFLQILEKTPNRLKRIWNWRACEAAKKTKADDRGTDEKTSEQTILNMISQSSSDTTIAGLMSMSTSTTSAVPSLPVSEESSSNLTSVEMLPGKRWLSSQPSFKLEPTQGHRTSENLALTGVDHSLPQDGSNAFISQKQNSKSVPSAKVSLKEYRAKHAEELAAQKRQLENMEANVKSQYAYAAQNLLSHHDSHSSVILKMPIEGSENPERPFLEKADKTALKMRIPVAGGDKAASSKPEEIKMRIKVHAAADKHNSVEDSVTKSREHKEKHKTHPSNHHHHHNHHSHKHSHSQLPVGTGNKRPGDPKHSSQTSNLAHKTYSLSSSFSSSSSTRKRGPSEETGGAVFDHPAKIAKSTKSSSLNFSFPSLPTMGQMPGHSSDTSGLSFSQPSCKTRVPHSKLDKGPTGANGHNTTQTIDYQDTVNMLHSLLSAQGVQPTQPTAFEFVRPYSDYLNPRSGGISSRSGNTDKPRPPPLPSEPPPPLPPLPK
Sequence of IGF-1R (P08069 31-1367): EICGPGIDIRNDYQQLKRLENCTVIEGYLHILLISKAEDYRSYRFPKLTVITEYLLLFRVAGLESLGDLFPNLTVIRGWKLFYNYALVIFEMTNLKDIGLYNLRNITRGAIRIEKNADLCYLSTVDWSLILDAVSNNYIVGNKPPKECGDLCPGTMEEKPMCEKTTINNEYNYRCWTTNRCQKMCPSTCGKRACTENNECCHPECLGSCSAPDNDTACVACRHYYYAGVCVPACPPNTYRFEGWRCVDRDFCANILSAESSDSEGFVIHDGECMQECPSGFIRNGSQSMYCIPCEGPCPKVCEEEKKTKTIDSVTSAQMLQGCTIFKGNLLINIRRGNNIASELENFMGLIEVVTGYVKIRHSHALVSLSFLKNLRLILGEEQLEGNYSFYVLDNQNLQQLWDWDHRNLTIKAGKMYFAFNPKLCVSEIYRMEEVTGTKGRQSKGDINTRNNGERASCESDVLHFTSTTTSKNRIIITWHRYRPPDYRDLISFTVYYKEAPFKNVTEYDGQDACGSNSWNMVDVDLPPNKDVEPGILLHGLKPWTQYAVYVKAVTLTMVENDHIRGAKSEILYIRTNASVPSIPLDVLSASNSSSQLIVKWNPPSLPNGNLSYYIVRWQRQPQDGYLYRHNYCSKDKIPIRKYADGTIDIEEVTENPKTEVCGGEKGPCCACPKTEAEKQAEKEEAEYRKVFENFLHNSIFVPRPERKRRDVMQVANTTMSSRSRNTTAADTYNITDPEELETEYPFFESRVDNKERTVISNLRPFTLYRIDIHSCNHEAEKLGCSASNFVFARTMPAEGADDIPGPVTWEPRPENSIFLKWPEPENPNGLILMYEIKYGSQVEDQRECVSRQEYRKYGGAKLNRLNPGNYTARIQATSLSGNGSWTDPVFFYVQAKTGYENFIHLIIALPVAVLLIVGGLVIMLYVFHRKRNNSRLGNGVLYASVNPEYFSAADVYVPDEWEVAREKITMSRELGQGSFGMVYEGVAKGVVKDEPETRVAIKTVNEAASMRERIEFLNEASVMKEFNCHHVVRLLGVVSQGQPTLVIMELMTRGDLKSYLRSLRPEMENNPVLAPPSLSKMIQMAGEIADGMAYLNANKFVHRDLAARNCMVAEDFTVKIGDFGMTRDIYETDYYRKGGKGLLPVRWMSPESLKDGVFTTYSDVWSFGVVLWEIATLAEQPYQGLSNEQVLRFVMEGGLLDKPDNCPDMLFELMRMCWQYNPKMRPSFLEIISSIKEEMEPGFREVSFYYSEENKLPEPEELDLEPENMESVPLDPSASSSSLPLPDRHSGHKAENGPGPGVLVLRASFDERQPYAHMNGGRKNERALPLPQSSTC
Sequence of NEK6 (Q9HC98 whole entry): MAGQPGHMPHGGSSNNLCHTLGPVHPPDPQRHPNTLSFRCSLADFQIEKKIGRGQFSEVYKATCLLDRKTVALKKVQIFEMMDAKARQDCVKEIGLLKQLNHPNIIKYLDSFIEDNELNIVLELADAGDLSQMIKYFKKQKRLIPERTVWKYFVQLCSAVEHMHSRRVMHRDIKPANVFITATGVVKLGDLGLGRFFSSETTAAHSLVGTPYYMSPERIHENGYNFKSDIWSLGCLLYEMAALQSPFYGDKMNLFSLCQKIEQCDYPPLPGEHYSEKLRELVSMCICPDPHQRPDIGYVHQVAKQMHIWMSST

Turning to `COc1ccc(Cl)c(S(=O)(=O)Nc2ccc(-c3nc(OC[C@H]4CNCCO4)c4c(C)n[nH]c4n3)cc2)c1` [290-R, reference compound], the remaining activity – broadly, the signal under treatment as a percentage of the control signal – at 1 µM at ROCK 2 amounted to 105%; on GSK3 beta, 90%; at NEK6 it was 88%; at SYK, 88%; on JNK2, 105%; on EPH-B1, 117%. Besides, the remaining activity at 1 µM came out at 105% on CDK9-Cyclin T1; 89% at DYRK3; 55% at PKB beta; 105% on PIM3; 113% at PKC alpha; 111% at p38 delta MAPK. Also, the remaining activity at 1 µM at CDK2-Cyclin A turned out to be 94%; on EPH-A4, 95%; on IGF-1R it was 88%; at YES1, 92%. The “% Activity Remaining” value in the assay on PHK stood at 97%.
As to `Cc1ccc(F)c(S(=O)(=O)Nc2ccc(-c3nc(OC[C@H]4CNCCO4)c4cn[nH]c4n3)cc2)c1` [308-R, reference compound], the remaining activity at 1 µM on ROCK 2 worked out at 74%; at GSK3 beta, 92%; at NEK6, 91%; at SYK, 100%; on JNK2, 113%; at EPH-B1, 96%. Moreover, the remaining activity at 1 µM at CDK9-Cyclin T1 was found to be 63%; on DYRK3, 99%; on PKB beta, 35%; on PIM3, 76%; at PKC alpha, 135%; on p38 delta MAPK, 126%. Also, the remaining activity at 1 µM at CDK2-Cyclin A came out at 61%; on EPH-A4 it was 53%; on IGF-1R, 95%; on YES1, 71%. Also, the “% Activity Remaining” value with PHK came to 83%.
With `Cc1ccc(F)c(S(=O)(=O)Nc2ccc(-c3nc(OC[C@H]4CN(CCCCCCOCCOCCOCC(=O)N[C@H](C(=O)N5C[C@H](O)C[C@H]5C(=O)NCc5ccc(-c6scnc6C)cc5)C(C)(C)C)CCO4)c4cn[nH]c4n3)cc2)c1` [SGK3-PROTAC1], the remaining activity at 1 µM was found to be 113% on ROCK 2 (1 µM); 108% at GSK3 beta (1 µM); 106% on NEK6 (1 µM); 116% at SYK (1 µM); 117% on JNK2 (1 µM); 100% on EPH-B1 (1 µM). Besides, the remaining activity at 1 µM stood at 103% on CDK9-Cyclin T1 (1 µM); 102% on DYRK3 (1 µM); 99% on PKB beta (1 µM); 88% at PIM3 (1 µM); 121% at PKC alpha (1 µM); 103% on p38 delta MAPK (1 µM). For the same compound, the remaining activity at 1 µM at CDK2-Cyclin A (1 µM) is 101%; on EPH-A4 (1 µM), 106%; at IGF-1R (1 µM), 82%; at YES1 (1 µM) it was 108%. Besides, the “% Activity Remaining” value in the assay on PHK came to 113%.
On to `Cc1ccc(F)c(S(=O)(=O)Nc2ccc(-c3nc(OC[C@H]4CN(CCCCCCOCCOCCOCC(=O)N[C@H](C(=O)N5C[C@@H](O)C[C@H]5C(=O)NCc5ccc(-c6scnc6C)cc5)C(C)(C)C)CCO4)c4cn[nH]c4n3)cc2)c1` [cisSGK3-PROTAC1], for which the remaining activity at 1 µM on ROCK 2 (1 µM) was 119%; on GSK3 beta (1 µM) it was 106%; at NEK6 (1 µM) it was 111%; on SYK (1 µM) it was 103%; at JNK2 (1 µM), 109%; at EPH-B1 (1 µM) it was 108%. Besides, the remaining activity at 1 µM was determined as 105% at CDK9-Cyclin T1 (1 µM); 104% at DYRK3 (1 µM); 101% on PKB beta (1 µM); 89% on PIM3 (1 µM); 118% at PKC alpha (1 µM); 121% at p38 delta MAPK (1 µM). For the same compound, the remaining activity at 1 µM at CDK2-Cyclin A (1 µM) was 103%; on EPH-A4 (1 µM), 89%; at IGF-1R (1 µM), 93%; at YES1 (1 µM) it was 105%. Further, the “% Activity Remaining” value in the assay on PHK was 122%.

For the origin of these results see article PMC6757289, “Design and Characterization of SGK3-PROTAC1, an Isoform Specific SGK3 Kinase PROTAC Degrader” (ACS Chemical Biology, 2019).
